# Measured values as given in patent EP2998294A1, “Naphthyl sulfonamide phenyl derivatives as KEAP-1 modulators for the treatment of diabetes, obesity, dyslipidemia and related disorders” (SANOFI, priority 2014, dated 2016).
# Molecular target: T1, human Keap1 kelch domain (amino acids Ala321-Thr609) (Homo sapiens, UniProt Q14145)
# T1 construct: human Keap1 kelch domain (amino acids Ala321-Thr609)
# Assay: Keap1-Nrf2 peptide binding assay (fluorescence polarisation)
# Conditions: not given
# Experimental: A fluorescence polarisation assay was used to measure binding of the human Keap1 kelch domain (amino acids Ala321-Thr609) to a fluorescently labeled peptide containing a Keap1 binding site of human Nrf2 (Alexa633-AFFAQLQLDEETGEFL; JPT Technologies, Berlin, Germany). Two microliters of test compound in reaction buffer (phosphate-buffered saline, 2 mM DL-dithiothreitol, 0.015 % (v/v) Brij-35) containing 6 % (v/v) DMSO were mixed with two microliters of the Keap1 kelch domain in reaction buffer in a black 384-well small volume microtiter plate and incubated at ambient temperature for 15 minutes. Thereafter, two microliters were added of the fluorescently labeled Nrf2 peptide in reaction buffer, and the mixture was incubated for a further 30 minutes at ambient temperature. Final concentrations of the Keap1 kelch domain and the fluorescently labeled Nrf2 peptide were 20 nM and 50 nM, respectively.
# Fluorescence polarization (FP) was measured at excitation and emission wavelengths of 635 nm and 660 nm, respectively. Positive controls for binding (two microliters of reaction buffer containing 6 % (v/v) DMSO instead of test compound in the same buffer) and negative controls (as positive controls, but without Keap1 kelch domain) were included on each microtiter plate. Data were expressed as percent-inhibition values: percentinhibition = 100⋅(1-(|FPcompound-FPnegative controle|)/(|FPpositive controle-FPnegative controle|)) [formula]
# IC50 values were determined by testing different compound concentrations and fitting the resulting percent-inhibition values to the following equation using XLFit4: percentinhibition = A + (B-A)/(1 + (((IC50)/([Compound])))^D) [formula]
# Parameter A was set to zero, pre-fit values for parameters B and D were set to 100 and 1, respectively.
# T1 sequence (Q14145 321-609): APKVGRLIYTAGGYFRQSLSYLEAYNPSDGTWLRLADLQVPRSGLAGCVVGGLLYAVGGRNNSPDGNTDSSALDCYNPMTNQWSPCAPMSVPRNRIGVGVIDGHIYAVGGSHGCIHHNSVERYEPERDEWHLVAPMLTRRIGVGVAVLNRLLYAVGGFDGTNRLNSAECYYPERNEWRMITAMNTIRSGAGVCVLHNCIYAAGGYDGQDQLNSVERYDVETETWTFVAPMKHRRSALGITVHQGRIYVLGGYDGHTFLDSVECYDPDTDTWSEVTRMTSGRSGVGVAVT
row,Compound,IC50
1,"O=C1Cc2cc(S(=O)(=O)Nc3ccc(-c4cccc(C(=O)O)c4)c4ccccc34)ccc2N1 [Example 51, [4-[(2-oxoindolin-5-yl)sulfonylamino]-1-naphthyl]benzoic acid]",7.8 µM

# Same assay, conditions: binding of Keap1 kelch domain (20 nM) to fluorescently labeled Nrf2 peptide (50 nM)
row,Compound,IC50
1,"O=C(O)c1cccc(-c2ccc(NS(=O)(=O)c3ccc(Cl)cc3Cl)c3ccccc23)c1 [Example 15, 3-[4-[(2,4-dichlorophenyl)sulfonylamino]-1-naphthyl]benzoic acid]",1 µM
2,"O=C(O)c1cccc(-c2ccc(NS(=O)(=O)c3cc(Cl)ccc3Cl)c3ccccc23)c1 [Example 54, 3-[4-[(2,5-dichlorophenyl)sulfonylamino]-1-naphthyl]benzoic acid]",3.7 µM
3,"O=C(O)c1ccc(F)c(-c2ccc(NS(=O)(=O)c3cc(F)cc(F)c3Cl)c3ccccc23)c1 [Example 92, 3-[4-[(2-chloro-3,5-difluorophenyl)sulfonylamino]-1-naphthyl]-4-fluorobenzoic acid]",5.3 µM
4,"O=C(O)c1cccc(-c2ccc(NS(=O)(=O)c3ccc(F)cc3Cl)c3ccccc23)c1 [Example 35, 3-[4-[(2-chloro-4-fluorophenyl)sulfonylamino]-1-naphthyl]benzoic acid]",5.6 µM
5,"O=C(O)c1cccc(-c2ccc(NS(=O)(=O)c3cc(Cl)sc3Cl)c3ccccc23)c1 [Example 49, 3-[4-[(2,5-dichloro-3-thienyl)sulfonylamino]-1-naphthyl]benzoic acid]",1.7 µM

# Same assay, conditions: binding of Keap1 kelch domain (20 nM) to fluorescently labeled Nrf2 peptide (50 nM); read-out: IC50
row,Compound,IC50
1,"O=C(O)c1cccc(-c2ccc(NS(=O)(=O)c3c(F)cccc3F)c3ccccc23)c1 [Example 16, 3-[4-[(2,6-difluorophenyl)sulfonylamino]-1-naphthyl]benzoic acid]",6.5 µM
2,"COc1cc(C)ccc1S(=O)(=O)Nc1ccc(-c2cccc(C(=O)O)c2)c2ccccc12 [Example 18, 3-[4-[(2-methoxy-4-methylphenyl)sulfonylamino]-1-naphthyl]benzoic acid]",5.8 µM
3,"Cc1cc(S(=O)(=O)Nc2ccc(-c3cccc(C(=O)O)c3)c3ccccc23)c(Cl)cc1Cl [Example 14, 3-[4-[(2,4-dichloro-5-methylphenyl)sulfonylamino]-1-naphthyl]benzoic acid]",3.8 µM

# Next, values leading:
row,IC50,Compound
1,1.5 µM,"Cc1nn(-c2ccccc2)c(C)c1S(=O)(=O)Nc1ccc(-c2cc(C(=O)O)ccc2F)c2ccccc12 [Example 86, 3-[4-[(3,5-dimethyl-1-phenyl-pyrazol-4-yl)sulfonylamino]-1-naphthyl]-4-fluorobenzoic acid]"
2,5.1 µM,"Cc1ccc(F)c(S(=O)(=O)Nc2ccc(-c3cccc(C(=O)O)c3)c3ccccc23)c1 [Example 28, 3-[4-[(2-fluoro-5-methylphenyl)sulfonylamino]-1-naphthyl]benzoic acid]"
3,2.5 µM,"COc1cc(C)ccc1S(=O)(=O)Nc1ccc(-c2cc(C(=O)O)ccc2F)c2ccccc12 [Example 89, 4-fluoro-3-[4-[(2-methoxy-4-methylphenyl)sulfonylamino]-1-naphthyl]benzoic acid]"
4,4.3 µM,"O=C(O)c1cccc(-c2ccc(NS(=O)(=O)c3ccc4c(c3)OCCO4)c3ccccc23)c1 [Example 55, 3-[4-(2,3-dihydro-1,4-benzodioxin-6-ylsulfonylamino)-1-naphthyl]benzoic acid]"
5,2.4 µM,"O=C(O)c1ccc(F)c(-c2ccc(NS(=O)(=O)c3cc(Cl)ccc3Cl)c3ccccc23)c1 [Example 76, 3-[4-[(2,5-dichlorophenyl)sulfonylamino]-1-naphthyl]-4-fluoro-benzoic acid]"
6,0.9 µM,"Cc1c(S(=O)(=O)Nc2ccc(-c3cc(C(=O)O)ccc3F)c3ncccc23)c2ccccc2n1C [Example 96, 3-[5-[(1,2-dimethylindol-3-yl)sulfonylamino]-8-quinolyl]-4-fluoro-benzoic acid]"
7,5.5 µM,"Cn1ccc2c(S(=O)(=O)Nc3ccc(-c4cc(C(=O)O)ccc4F)c4ncccc34)cccc21 [Example 97, 4-fluoro-3-[5-[(1-methylindol-4-yl)sulfonylamino]-8-quinolyl]benzoic acid]"
